The results in this text go back to US11958865B1, “Leucine-rich repeat kinase 2 (LRRK2) inhibitors” (H. Lundbeck A/S, priority 2022, dated 2024).

Like-named read-outs stand apart in the source and are kept apart here.

Data set [1] has as its system pooled donor, cryopreserved hepatocytes. Nature of the data set: Hepatocyte intrinsic clearance assay. The class given is in vitro ADME, Human. The settings on record: based on hepatocyte CLint values of Table 5. The procedure, abridged: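 Compound (0.05 μM final, 0.05% organic) was incubated with pooled-donor cryopreserved hepatocytes (1×10^6/mL) in supplemented Leibovitz L-15, pH 7.4, at 37° C with shaking for 2 h. Samples were taken from 1 to 120 min, quenched in acetonitrile and analyzed by LC-MS/MS.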

A short description of data set [2]: Rat brain disposition after oral gavage. The class given is in vivo, male Sprague-Dawley rats. The settings on record: male, Sprague-Dawley, 1 h, mean ± stdev; for Kp at 1 h / Kp uu at 1 h: n=3. The essentials: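 Male Sprague-Dawley rats (n=3) dosed orally at 10 or 5 mg/kg in 0.5% HPMC suspension; plasma and brain taken at 0.5 or 1 h. LC-MS/MS quantitation; Kp is total brain:plasma ratio, and Kp,uu was derived using rat fu in plasma and brain.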

Data set [3] is described as follows: Fraction unbound in rat plasma and brain homogenate by equilibrium dialysis. The class given is in vitro ADME, male Sprague-Dawley rat. The conditions noted are these: 1 μM, equilibrium dialysis 5 h at 37° C.; for fubrain (% free): rat brain homogenate; for fuplasma (% free): rat plasma. The procedure, abridged:
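Male Sprague-Dawley rat plasma or brain homogenate (diluted 1:4 in buffer) dialysed against 100 mM sodium phosphate pH 7.4 across a 12-14 kDa membrane, 1 μM compound (≤0.5% DMSO), 5 h at 37° C with shaking. LC/MS-MS of both chambers; fu from buffer/donor ratio, corrected for dilution factor D=4 (brain) or 1 (plasma).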
(In equilibrium dialysis free small molecules cross a membrane that holds back macromolecules.)

In data set [4] the test system is panel of 403 wild type kinases. Nature of the data set: Broad kinase selectivity, KINOMEscan scanMAX panel. The format is binding, primarily of human origin. The settings on record: 10 nM. On the procedure:
Protein kinase profiling of the inhibitors (Fabian, M. A. et al. A small molecule-kinase interaction map for clinical kinase inhibitors. Nat. Biotechnol. 23, 329-336 (2005)) were undertaken at a concentration of 0.010 μM and carried out in Eurofins DiscoverX KINOMEscan scanMAX panel of 403 wild type kinases (primarily of human origin) covering AGC (PKA, PKG, PKC family kinases), CAMK (Calcium/calmodulin-dependent protein kinases), CK1 (Casein kinase 1 kinases), CMGC (CDK, MAPK, GSK3, CLK families), STE (homologs of yeast Sterile 7, Sterile 11, Sterile 20 kinases), TK (Tyrosine kinases), TKL (Tyrosine kinase-like kinases), lipid and atypical kinase families.
Selectivity Score or S-score is a quantitative measure of compound selectivity. It was calculated by dividing the number of kinases that a compound binds to by the total number of distinct kinases tested, excluding mutant variants. S=Number of hits/Number of assays. This value can be calculated using % Ctrl as a potency threshold (below) and provides a quantitative method of describing compound selectivity to facilitate comparison of different compounds.

[5] abbreviates: brain, oral 5 mg/kg, n=3, read-out: Total brain concentration.
Where [6] appears, read: plasma, oral 5 mg/kg, n=3, read-out: Total plasma concentration.

On to `COc1nc(C)ccc1-n1nc2c(c1C)Nc1ncc3c(Cl)nn(c3n1)CCCO2` [Example 13, 8-Chloro-2-(2-methoxy-6-methylpyridin-3-yl)-3-methyl-2,4,12,13-tetrahydro-11H-5,7-(azenometheno)dipyrazolo[3,4-b:5′,1′-g][1]oxa[4,6,8]triazacycloundecine], for which the “Rate of metabolism classification (hepatocyte CLint)” value in data set [1] is given as “moderate to high rate of metabolism”. In data set [2] (brain, oral 5 mg/kg), this compound gave a Kp at 1 h of 2.5 ± 0.1 and a Kp uu at 1 h of 0.74 ± 0.01. Besides, in data set [2] (setting [5]), the concentration at 1 h was found to be 496 ± 128 ng/g. Also, the concentration at 1 h in data set [2] (setting [6]) was 199 ± 52 ng/mL. Further, in data set [3], the “fubrain (% free)” value is on record as 1.9 % free and the “fuplasma (% free)” value came to 7.4 % free.

Consider `Cc1c2c(nn1-c1cccnc1C(C)(F)F)OCCCn1nc(Cl)c3cnc(nc31)N2` [Example 14, 8-Chloro-2-(2-(1,1-difluoroethyl)pyridin-3-yl)-3-methyl-2,4,12,13-tetrahydro-11H-5,7-(azenometheno)dipyrazolo[3,4-b:5′,1′-g][1]oxa[4,6,8]triazacycloundecine], for which, in data set [2] (brain, oral 5 mg/kg), the Kp at 1 h was found to be 1.2 ± 0.1 and the Kp uu at 1 h is 0.49 ± 0.04. Besides, the concentration at 1 h in data set [2] (setting [5]) is 347 ± 53 ng/g. Further, in data set [2] (setting [6]), the concentration at 1 h was found to be 283 ± 57 ng/mL. Further, in data set [3], the “fubrain (% free)” value is 5.8 % free and the “fuplasma (% free)” value came out at 14.6 % free.

For the compound `COc1nccc(C)c1-n1nc2c(c1C)Nc1ncc3c(Cl)nn(c3n1)CCCO2` [Example 7, 8-Chloro-2-(2-methoxy-4-methylpyridin-3-yl)-3-methyl-2,4,12,13-tetrahydro-11H-5,7-(azenometheno)dipyrazolo[3,4-b:5′,1′-g][1]oxa[4,6,8]triazacycloundecine], in data set [2] (brain, oral 5 mg/kg), the Kp at 1 h is 1.9 ± 0.3 and the Kp uu at 1 h came to 0.68 ± 0.12. The concentration at 1 h in data set [2] (setting [5]) stood at 10 ± 2 ng/g. In addition, the concentration at 1 h in data set [2] (setting [6]) was 6 ± 2 ng/mL. For the same compound, in data set [3], the “fubrain (% free)” value was 7.5 % free and the “fuplasma (% free)” value was found to be 21.0 % free.

As to `Cc1nc(C)c(-n2nc3c(c2C)Nc2ncc4c(Cl)nn(c4n2)CCCO3)cc1F` [Example 15, 8-Chloro-2-(5-fluoro-2,6-dimethylpyridin-3-yl)-3-methyl-2,4,12,13-tetrahydro-11H-5,7-(azenometheno)dipyrazolo[3,4-b:5′,1′-g][1]oxa[4,6,8]triazacycloundecine], in data set [2] (brain, oral 5 mg/kg), the Kp at 1 h was 1.8 ± 0.2 and the Kp uu at 1 h is 0.81 ± 0.07. For the same compound, the concentration at 1 h in data set [2] (setting [5]) worked out at 254 ± 32 ng/g. Moreover, in data set [2] (setting [6]), the concentration at 1 h stood at 143 ± 8 ng/mL. In data set [3], the “fubrain (% free)” value is 5.0 % free and the “fuplasma (% free)” value was 11.0 % free.

In data set [2] (brain, oral 10 mg/kg), `COc1ncccc1-n1nc2c(c1C)Nc1ncc3c(Cl)nn(c3n1)CCCO2` [Example 1, 8-Chloro-2-(2-methoxypyridin-3-yl)-3-methyl-2,4,12,13-tetrahydro-11H-5,7-(azenometheno)dipyrazolo[3,4-b:5′,1′-g][1]oxa[4,6,8]triazacycloundecine] displayed a Kp at 1 h of 2.6 ± 0.2 and a Kp uu at 1 h of 0.83 ± 0.07. In data set [2] (brain, oral 10 mg/kg, n=3, read-out: Total brain concentration), the concentration at 1 h stood at 620 ± 280 ng/g. Also, in data set [2] (plasma, oral 10 mg/kg, n=3, read-out: Total plasma concentration), the concentration at 1 h was 245 ± 121 ng/mL. Further, the “Selectivity Score S(1)” value in data set [4] (hits with % Ctrl <1 / 403 non-mutant kinases) was 0.005. The “Selectivity Score S(10)” value in data set [4] (hits with % Ctrl <10 / 403 non-mutant kinases) came out at 0.01. The “Selectivity Score S(35)” value in data set [4] (hits with % Ctrl <35 / 403 non-mutant kinases) was determined as 0.03. In addition, the “Number of Hits, S(1)” value in data set [4] (kinases with % Ctrl <1, 403 non-mutant kinases, includes LRRK2 WT) was found to be 2. In data set [4] (kinases with % Ctrl <10, 403 non-mutant kinases), the “Number of Hits, S(10)” value came out at 4. Further, in data set [4] (kinases with % Ctrl <35, 403 non-mutant kinases), the “Number of Hits, S(35)” value turned out to be 12. Besides, in data set [3], the “fubrain (% free)” value worked out at 4.7 % free and the “fuplasma (% free)” value turned out to be 14.7 % free.

Take `COc1nc(C)ncc1-n1nc2c(c1C)Nc1ncc3c(Cl)nn(c3n1)CCCO2` [Example 22, 8-Chloro-2-(4-methoxy-2-methylpyrimidin-5-yl)-3-methyl-2,4,12,13-tetrahydro-11H-5,7-(azenometheno)dipyrazolo[3,4-b:5′,1′-g][1]oxa[4,6,8]triazacycloundecine]: in data set [2] (brain, oral 5 mg/kg), the Kp at 1 h came out at 2.5 ± 0.4 and the Kp uu at 1 h is 1.02 ± 0.17. Moreover, the concentration at 1 h in data set [2] (setting [5]) was 216 ± 42 ng/g. The concentration at 1 h in data set [2] (setting [6]) was found to be 86 ± 8 ng/mL. Besides, in data set [3], the “fubrain (% free)” value was 6.8 % free and the “fuplasma (% free)” value is 16.8 % free.

In data set [2] (brain, oral 5 mg/kg), `COc1ncc(C)cc1-n1nc2c(c1C)Nc1ncc3c(Cl)nn(c3n1)CCCO2` [Example 12, 8-Chloro-2-(2-methoxy-5-methylpyridin-3-yl)-3-methyl-2,4,12,13-tetrahydro-11H-5,7-(azenometheno)dipyrazolo[3,4-b:5′,1′-g][1]oxa[4,6,8]triazacycloundecine] registered a Kp at 1 h of 1.9 ± 0.3 and a Kp uu at 1 h of 0.85 ± 0.15. In addition, the concentration at 1 h in data set [2] (setting [5]) was determined as 146 ± 56 ng/g. Also, the concentration at 1 h in data set [2] (setting [6]) amounted to 76 ± 23 ng/mL. In data set [3], the “fubrain (% free)” value was found to be 3.0 % free and the “fuplasma (% free)” value is 6.7 % free.
